Reference: PubChem BioAssay (NCI)
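Compound exposure: 48 hours, 5 concentrations, 96-well plates. TGI: concentration producing complete growth inhibition.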 Where a SMILES comes first, the peptide text is derived from it. The star is where a group is joined. Boc = CC(C)(C)OC(=O)*

Key:
Assay in all cases: NCI anticancer screen, dose series, 48 h
LOX IMVI melanoma = system: LOX IMVI melanoma
RPMI-8226 leukemia = system: RPMI-8226 leukemia
NCI-H23 lung = system: NCI-H23 lung
NCI/ADR-RES ovarian = system: NCI/ADR-RES ovarian
HT29 colon = system: HT29 colon
HCC-2998 colon = system: HCC-2998 colon
HOP-62 NSCLC = system: HOP-62 NSCLC
BT-549 breast = system: BT-549 breast
SK-MEL-2 melanoma = system: SK-MEL-2 melanoma
T-47D breast = system: T-47D breast

SMILES | TGI (LOX IMVI melanoma) | TGI (RPMI-8226 leukemia) | TGI (NCI-H23 lung) | TGI (NCI/ADR-RES ovarian) | TGI (HT29 colon) | TGI (HCC-2998 colon) | TGI (HOP-62 NSCLC) | TGI (BT-549 breast) | TGI (SK-MEL-2 melanoma) | TGI (T-47D breast)
N#CC(C#N)=CNC(=S)c1ccncc1 | > 100 µM | > 100 µM | > 100 µM | > 100 µM | > 100 µM | > 100 µM | > 100 µM | 80.3 µM | > 100 µM | > 100 µM
CC(C)(C)NC(=O)/C(=C\Sc1ccccc1)c1ccc2c(c1)OCO2 | 48.9 µM | 94.4 µM | > 100 µM | 97.5 µM | 35.9 µM | > 100 µM | > 100 µM | > 100 µM | 34.6 µM | > 100 µM
CCN(C(=S)N[C@@H](Cc1ccccc1)C(=O)N[C@@H](CC(C)C)C(=O)OC)c1ccccc1 | > 100 µM | > 100 µM | > 100 µM | > 100 µM | > 100 µM | > 100 µM | > 100 µM | > 100 µM | > 100 µM | > 100 µM
Brc1cccc(Nc2nc(-c3cccs3)nc3ccc(Br)cc23)c1 | > 100 µM | > 100 µM | > 100 µM | > 100 µM | 53 µM | 42.1 µM | > 100 µM | > 100 µM | 94.5 µM | > 100 µM
COc1ccc(C#CC(=O)O)c(OC)c1 | > 100 µM | > 100 µM | > 100 µM | > 100 µM | > 100 µM | > 100 µM | > 100 µM | > 100 µM | > 100 µM | > 100 µM
Cc1csc(-c2cn(C)c3c2C(=O)C(N)=CC3=O)n1 | > 100 µM | > 22.8 µM | > 30 µM | > 100 µM | > 67.1 µM | > 100 µM | 98.5 µM | > 100 µM | > 82.7 µM | > 100 µM
CN(C)Cc1cc(C(=O)/C=C/c2ccc(O)cc2)cc(CN(C)C)c1O | > 100 µM | 49.8 µM | > 100 µM | > 100 µM | > 100 µM | > 100 µM | > 100 µM | > 100 µM | > 100 µM | > 100 µM
Cc1cc2[nH]c3[nH]c(=O)[nH]c(=O)c3c2cc1C | > 100 µM | > 100 µM | > 100 µM | > 100 µM | > 100 µM | > 100 µM | > 100 µM | > 100 µM | > 100 µM | > 100 µM
COc1ccc2nc3cc(Cl)ccc3c(NCCCNCCCNc3c4ccc(Cl)cc4nc4ccc(OC)cc34)c2c1 | 0.0145 µM | 27.7 µM | 0.144 µM | > 22.8 µM | 0.231 µM | 0.147 µM | 0.14 µM | 1.67 µM | 0.15 µM | 1.23 µM
C=CCO/N=C/c1cc(NC(=S)c2ccoc2C)ccc1Cl | 44.5 µM | 12.1 µM | 26.7 µM | 29 µM | 26.2 µM | 24 µM | 29.5 µM | 34.7 µM | 28 µM | 23.7 µM
O=C1c2cc3c(cc2CC1Br)CCC3 (stereo not drawn) | 2 µM | 4.45 µM | 9.27 µM | 19.2 µM | 5.78 µM | 13.4 µM | 30.8 µM | 4.49 µM | 5.2 µM | 5.68 µM
COc1ccc(C(OCC2OC(n3cc(C)c(=O)[nH]c3=O)CC2n2cc(Cn3cc(F)c(=O)[nH]c3=O)nn2)(c2ccccc2)c2ccccc2)cc1 (stereo not drawn) | > 100 µM | 8.93 µM | 27.9 µM | > 100 µM | > 100 µM | 15.1 µM | 25.7 µM | 28.8 µM | 24.8 µM | 24.4 µM
CN(C)C(=S)S | > 100 µM | > 78.9 µM | > 93.3 µM | > 100 µM | > 100 µM | 59.4 µM | – | > 100 µM | > 93.8 µM | > 100 µM
COc1cc(C2SCC(=O)N2c2ccc(NC(=O)c3ccc(N4C(=O)CSC4c4cc(OC)c(OC)c(OC)c4)cc3)cc2)cc(OC)c1OC (stereo not drawn) | > 100 µM | > 100 µM | > 100 µM | 70.6 µM | > 100 µM | > 100 µM | > 100 µM | > 100 µM | > 100 µM | > 100 µM
O=C(NCCN1CCOCC1)c1ccc2cc(C(=O)N3CC(CCl)c4ccc([N+](=O)[O-])cc43)[nH]c2c1 (stereo not drawn) | > 100 µM | 9.09 µM | > 100 µM | > 100 µM | 24.7 µM | 29.7 µM | 30.8 µM | 92.3 µM | 32.7 µM | > 100 µM
CC(C)(C)OC(=O)NCC(=O)NCC(=O)NCC(=O)NCC(=O)O (Boc-GGGG-OH) | > 100 µM | > 100 µM | > 100 µM | > 100 µM | > 100 µM | > 100 µM | > 100 µM | > 100 µM | – | > 100 µM
C/C=C/C=C/c1nc(C#N)c(N)o1 | > 100 µM | > 100 µM | > 100 µM | > 100 µM | > 100 µM | > 100 µM | > 100 µM | > 100 µM | > 100 µM | > 100 µM
